Results published in patent US11753408B2, “Compounds and method for blocking transmission of malarial parasite” (The United States of America, as represented by the …, priority 2016, dated 2023).
Like-named read-outs stand apart in the source and are kept apart here.

How the values were obtained:
[1] = PAMPA permeability; assay type: in vitro ADME; conditions: PAMPA
[2] = Solubility at pH 7.4; assay type: physicochemical
[3] = tested on: Stage III-V gametocytes (blood stage P. falciparum parasites); test: In vitro drug activity on gametocytes (AlamarBlue viability assay); assay type: cell-based, Plasmodium falciparum; conditions: read-out: Gametocyte EC50
Method: Cell culture. Asexual parasites of P. falciparum strain 3D7 were cultured as described previously [Trager W, et al., Journal of Parasitology 2005, 91: 484-486], Stage III-V gametocytes were selected and enriched with 3-day treatment with 50 mM N-acetylglucosamine (NAG) and the following Percoll density gradient centrifugation after gametocyte production [Tanaka T Q, et al., Molecular and Biochemical Parasitology, 2011, 111: 160-163], Gametocytes of HB3 and Dd2 strains were produced and then set up for assay in a similar process. HepG2 cells (ATCC, cat. no. 77400) were cultured in 175-cm^2 tissue culture flasks with 30 ml growth medium at 37° C. in a 5% CO2 humidified atmosphere. Growth medium was made with Dulbecco's Modified Eagle Medium with 10% fetal bovine serum (FBS). Growth medium was replaced every other day and cells were passed at 75% confluence.
Compound screening experiments were performed as previously described [Tanaka T Q et al., Molecular and Biochemical Parasitology, 2013, 3188: 20-25], Briefly, 2.5 μl/well incomplete medium was dispensed into each well of 1,536-well plates using the Multidrop Combi followed by 23 nl compound transferring using the NX-TR Pintool (WAKO Scientific Solutions, San Diego, Calif.). 2.5 μl/well of gametocytes was dispensed with a seeding density of 20,000 cells/well using the Multidrop Combi. The assay plates were incubated for 72 h at 37° C. with 5% CO2. After addition of 5 μl/well of 2× AlamarBlue dye (Life Technologies, cat. no. DALI 100), the plates were incubated for 24 h at 37° C. with 5% CO2 and were read in a fluorescence detection mode (Ex=525 nm, Em=598 nm) on a ViewLux plate reader (PerkinElmer).
Stage III-V gametocytes (blood stage P. falciparum parasites) were enriched with treatment with 50 mM N-acetylglucosamine (NAG) and Percoll density gradient centrifugation as described previously^1. Briefly, 2.5 μl/well incomplete medium was dispensed into each well of 1,536-well plates using the Multidrop Combi followed by 23 nl compound transfer using the NX-TR Pintool (WAKO Scientific Solutions, San Diego, Calif.). Then, 2.5 μl/well of gametocytes was dispensed with a seeding density of 20,000 cells/well using the Multidrop Combi. The assay plates were incubated for 72 h at 37° C. with 5% CO2. After addition of 5 μl/well of 2× AlamarBlue dye (Life Technologies, cat. no. DALI 100), the plates were incubated for 24 h at 37° C. with 5% CO2 and then were read in a fluorescence detection mode (Ex=525 nm, Em=598 nm) on a ViewLux plate reader (PerkinElmer).

[4] = Microsomal stability (rat); assay type: in vitro ADME; conditions: rat microsomes
[5] = target: mTOR (Homo sapiens, UniProt P42345); test: mTOR activity (no method described); assay type: biochemical
[6] = tested on: Asexual parasites of P. falciparum strain 3D7; test: In vitro drug activity on asexual parasites (SYBR Green assay); assay type: cell-based, Plasmodium falciparum
Outline: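 SYBR Green I fluorescence (ex 490, em 520 nm) was read after freeze-thaw lysis and 30 min staining at room temperature. Before that, drug-treated cultures (0.5% parasitemia, 2% hematocrit, DMSO ≤0.5%) were incubated 72 h, in duplicate.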

[7] = P. falciparum stage III-V gametocytes, 72 h incubation, AlamarBlue
[8] = P. falciparum 3D7 asexual parasites, 72 h, SYBR Green

Compound | PAMPA Permeability (×10^6 cm/s) [1] | Sol @ pH 7.4 (ug/mL) [2] [ug/mL] | EC50 [3, 7] [µM] | Microsomal Stability (rat) T1/2 [4] [min] | Sol @ pH 7.4 [2] [ug/mL] | mTOR [5] | EC50 [3] [µM] | EC50 [6] [µM] | EC50 [6, 8] [µM]
CN(C)Cc1ccc(-c2ccc3ncc4ccc(=O)n(-c5ccc(N6CCOCC6)c(C#N)c5)c4c3c2)cc1 [Compound 5] | 725.27 ×10^6 cm/s | 7.03 | 0.508 | – | – | – | – | – | –
CCS(=O)(=O)c1ccc(-n2c(=O)ccc3cnc4ccc(-c5ccc(Cl)cc5)cc4c32)cc1 [Compound 27] | <1.0 ×10^6 cm/s | <1.0 | 0.108 | >30.0 | – | – | – | – | –
CN(C)Cc1ccc(-c2ccc3ncc4ccc(=O)n(-c5cccc(S(C)(=O)=O)c5)c4c3c2)cc1 [Compound 55] | 788.14 ×10^6 cm/s | >71.00 | 5.33 | 9.45 | – | – | – | – | –
CS(=O)(=O)c1cccc(-n2c(=O)ccc3cnc4ccc(-c5ccc(Cl)cc5)cc4c32)c1 [Compound 56] | 716.98 ×10^6 cm/s | 0.01 | 1.55 | >30.00 | – | – | – | – | –
CS(=O)(=O)c1ccc(-n2c(=O)ccc3cnc4ccc(-c5ccc(Cl)cc5)cc4c32)cc1N1CCOCC1 [Compound 58] | 1527.98 ×10^6 cm/s | <0.10 | 0.89 | 13.5 | – | – | – | – | –
C[S+]([O-])c1ccc(-n2c(=O)ccc3cnc4ccc(-c5ccc(N)nc5)cc4c32)cc1 (stereo not drawn) [Compound 81] | 5.1 ×10^6 cm/s | 10 | 0.0339 | – | – | – | – | – | –
CCNC(=O)c1cc(-c2ccc3ncc4ccc(=O)n(-c5ccc(C(=O)N6CCOCC6)cc5)c4c3c2)ccc1Cl [Compound 150] | – | – | – | 2.4 | 3.9 | 7.873 µM | 6.23 | 3.82 | –
O=C(c1ccc(-n2c(=O)ccc3cnc4ccc(-c5ccc(Cl)cc5)nc4c32)cc1)N1CCOCC1 [Compound 151] | – | – | – | 3.5 | <1.0 | 3.72 µM | 0.0527 | 0.0191 | –
COC(=O)c1cc(-c2ccc3ncc4ccc(=O)n(-c5ccc(C(=O)N6CCOCC6)cc5)c4c3c2)ccc1Cl [Compound 152] | – | – | – | 3.3 | <1.0 | 0.7962 µM | 4.04 | 2.21 | –
CCN(CC)Cc1ccc(-c2ccc3ncc4ccc(=O)n(-c5ccc(C(=O)N6CCOCC6)cc5)c4c3c2)cc1 [Compound 175] | – | – | – | >30.00 | 66.62 | 11.78 µM | 1.62 | 0.731 | –
O=C(c1ccc(-n2c(=O)ccc3cnc4ccc(-c5ccc(CCN6CCOCC6)cc5)cc4c32)cc1)N1CCOCC1 [Compound 182] | – | – | – | 10.8 | 1.1 | 1.439 µM | 1.48 | 0.459 | –
O=C(c1ccc(-n2c(=O)ccc3cnc4ccc(Br)cc4c32)cc1)N1CCOCC1 [Compound 337] | – | – | – | >30.0 | >68.0 | 3.229 µM | 6.23 | 1.57 | –
CN(C)Cc1ccc(-c2ccc3ncc4ccc(=O)n(-c5ccc6c(c5)CCC(=O)N6C)c4c3c2)cc1 [Compound 358] | 1209.2 ×10^6 cm/s | >72.00 | 2.18 | – | – | – | – | – | 0.879
CCN(CC)Cc1ccc(-c2ccc3ncc4ccc(=O)n(-c5ccc6c(c5)CNC6=O)c4c3c2)cc1 [Compound 363] | 8.76 ×10^6 cm/s | 57.74 | 0.86 | – | – | – | – | – | 0.45
O=C(O)CN1Cc2cc(-n3c(=O)ccc4cnc5ccc(-c6ccc(Cl)cc6)cc5c43)ccc2C1=O [Compound 365] | <1.8 ×10^6 cm/s | 55.9 | 30.6 | – | – | – | – | – | 0.481
COC(=O)CN1Cc2cc(-n3c(=O)ccc4cnc5ccc(-c6ccc(CN(C)C)cc6)cc5c43)ccc2C1=O [Compound 366] | 47.8 ×10^6 cm/s | 14.8 | 3.76 | – | – | – | – | – | 1.24
Nc1ccc(-c2ccc3ncc4ccc(=O)n(-c5ccc6c(c5)CNC6=O)c4c3c2)cn1 [Compound 388] | 2 ×10^6 cm/s | 11.8 | 0.0882 | – | – | – | – | – | 0.0282
Nc1ccc(-c2ccc3ncc4ccc(=O)n(-c5ccc6c(c5)CC(=O)N6)c4c3c2)cn1 [Compound 389] | <9.7 ×10^6 cm/s | <1.0 | 0.0653 | – | – | – | – | – | 0.0218
Nc1ccc(-c2ccc3ncc4ccc(=O)n(-c5ccc6c(c5)CCNC6=O)c4c3c2)cn1 [Compound 393] | <1.10 ×10^6 cm/s | 6.26 | 0.0307 | – | – | – | – | – | 0.00931
N#Cc1cccc(-n2c(=O)[nH]c3cnc4ccc(-c5ccc(Cl)cc5)cc4c32)c1 [Compound 397] | – | – | – | >30.0 | <1.0 | Inactive | 0.232 | 0.268 | –
Cn1c(=O)n(-c2cccc(C#N)c2)c2c3cc(-c4ccc(Cl)cc4)ccc3ncc21 [Compound 398] | – | – | – | >30.0 | <1.0 | 2.471 µM | 0.194 | 0.105 | –
Cc1ccc(C#N)cc1-n1c(=O)[nH]c2cnc3ccc(-c4ccc(Cl)cc4)cc3c21 [Compound 399] | – | – | – | >30.0 | <1.0 | 100 µM | 0.522 | 0.219 | –
COc1cc(-c2ccc3ncc4c(c3c2)n(-c2cccc(C#N)c2)c(=O)n4C)ccc1Cl [Compound 403] | – | – | – | >30.0 | 3.1 | 100 µM | 0.262 | 0.125 | –
CC(=O)n1c(=O)n(-c2cccc(C#N)c2)c2c3cc(-c4ccc(Cl)cc4)ccc3ncc21 [Compound 405] | – | – | – | 2.4 | <0.1 | 100 µM | 0.666 | 0.298 | –
Cn1c(=O)n(-c2ccc(N3CCNCC3)c(C#N)c2)c2c3cc(-c4ccc(Cl)cc4)ccc3ncc21 [Compound 406] | – | – | – | 19.4 | <1 | 0.2165 µM | 0.0131 | 0.00846 | –
COc1cc(-c2ccc3ncc4c(c3c2)n(-c2cc(C#N)ccc2C)c(=O)n4C)ccc1Cl [Compound 407] | – | – | – | >30 | <1 | 50 µM | 0.104 | 0.0524 | –
CCn1c(=O)n(-c2cccc(C#N)c2)c2c3cc(-c4ccc(Cl)cc4)ccc3ncc21 [Compound 440] | – | – | – | >30.0 | <1.0 | 100 µM | 2.18 | 0.787 | –
